In patent US7632865B2, “Thioamides and salts thereof and cytokine production inhibitors containing both” (Ishihara Sangyo Kaisha, Ltd., priority 2004, dated 2009) one finds melting point data, which are given here for 14 compounds.

`O=[N+]([O-])c1ccc(Cl)c(C(=S)Nc2ccc(Oc3ncc(C(F)(F)F)cc3Cl)cc2)c1` [Compound No. 1, N-(4-(3-chloro-5-trifluoromethyl-2-pyridyloxy)phenyl)-2-chloro-5-nitrothiobenzamide] displayed a melting point of 186 to 187 °C.

Consider `O=[N+]([O-])c1ccc(Cl)c(C(=S)Nc2ccc(Oc3cc(C(F)(F)F)cc(Cl)n3)cc2)c1` [Compound No. 2, N-(4-(6-chloro-4-trifluoromethyl-2-pyridyloxy)phenyl)-2-chloro-5-nitrothiobenzamide], for which the melting point was 186 to 187 °C.

In turn, `O=[N+]([O-])c1ccc(Cl)c(C(=S)NCCCOc2cc(C(F)(F)F)cc(N3CCSCC3)n2)c1` [Compound No. 4, N-(3-(6-thiomorpholino-4-trifluoromethyl-2-pyridyloxy)propyl)-2-chloro-5-nitrothiobenzamide] gave a melting point of 132 to 133 °C.

Consider `O=[N+]([O-])c1ccc(Cl)c(C(=S)Nc2ccc(Sc3ncc(C(F)(F)F)cc3Cl)cc2)c1` [Compound No. 5, N-(4-(3-chloro-5-trifluoromethyl-2-pyridylthio)phenyl)-2-chloro-5-nitrothiobenzamide], for which the melting point is 72 to 73 °C.

`O=[N+]([O-])c1ccc(Cl)c(C(=S)Nc2ccc(Nc3ncc(C(F)(F)F)cc3Cl)cc2)c1` [Compound No. 6, N-(4-(3-chloro-5-trifluoromethyl-2-pyridylamino)phenyl)-2-chloro-5-nitrothiobenzamide] yielded a melting point of 199 to 200 °C.

`O=[N+]([O-])c1ccc(Cl)c(C(=S)Nc2ccc(Sc3cc(C(F)(F)F)cc(Cl)n3)cc2)c1` [Compound No. 7, N-(4-(6-chloro-4-trifluoromethyl-2-pyridylthio)phenyl)-2-chloro-5-nitrothiobenzamide]: the melting point fell in the range of 183 to 186 °C.

Take `CN(C)c1cc(C(F)(F)F)cc(OCCCNC(=S)c2cc([N+](=O)[O-])ccc2Cl)n1` [Compound No. 8, N-(3-(6-dimethylamino-4-trifluoromethyl-2-pyridyloxy)propyl)-2-chloro-5-nitrothiobenzamide]: the melting point lay in the range of 102 to 103 °C.

The compound `O=[N+]([O-])c1ccc(Cl)c(C(=S)Nc2ccc(Oc3ncc(C(F)(F)F)cc3Cl)cc2F)c1` [Compound No. 11, N-(4-(3-chloro-5-trifluoromethyl-2-pyridyloxy)-2-fluorophenyl)-2-chloro-5-nitrothiobenzamide] had a melting point of 193 °C.

As to `O=[N+]([O-])c1ccc(F)c(C(=S)Nc2ccc(Oc3ncc(C(F)(F)F)cc3Cl)cc2F)c1` [Compound No. 12, N-(4-(3-chloro-5-trifluoromethyl-2-pyridyloxy)-2-fluorophenyl)-2-fluoro-5-nitrothiobenzamide], the melting point was 146 to 147 °C.

In the case of `FC(F)(F)c1cnc(Oc2ccc(NC(=S)c3cnc(Cl)cc3Cl)cc2)c(Cl)c1` [Compound No. 13, N-(4-(3-chloro-5-trifluoromethyl-2-pyridyloxy)phenyl)-4,6-dichlorothionicotinamide], the melting point was in the range of 175 to 176 °C.

`CN(C)c1cc(C(F)(F)F)cc(OCCCNC(=S)c2cc([N+](=O)[O-])ccc2F)n1` [Compound No. 16, N-(3-(6-dimethylamino-4-trifluoromethyl-2-pyridyloxy)propyl)-2-fluoro-5-nitrothiobenzamide] registered a melting point of 130 to 133 °C.

`N#Cc1ccc(Cl)c(C(=S)Nc2ccc(Oc3ncc(C(F)(F)F)cc3Cl)c(-n3cccc3)c2)c1` [Compound No. 17, N-(4-(3-chloro-5-trifluoromethyl-2-pyridyloxy)-3-(1H-pyrrol-1-yl)phenyl)-2-chloro-5-cyanothiobenzamide] gave a melting point of 229 to 230 °C.

As for `COc1cc(OC)nc(OCCCNC(=S)c2cc([N+](=O)[O-])ccc2Cl)n1` [Compound No. 18, N-(3-(4,6-dimethoxy-2-pyrimidinyloxy)propyl)-2-chloro-5-nitrothiobenzamide], the melting point is 119 to 120 °C.

As for `COc1cc(OC)nc(Oc2ccc(NC(=S)c3cc([N+](=O)[O-])ccc3Cl)cc2)n1` [Compound No. 19, N-(4-(4,6-dimethoxy-2-pyrimidinyloxy)phenyl)-2-chloro-5-nitrothiobenzamide], the melting point was 220 to 222 °C.

For orientation: melting point means the temperature of the solid-liquid transition.
